Results taken from patent US8367086B1, “Process and product for inhibiting or preventing bacterial infections” (S.S. Steiner, Inc., priority 2004, dated 2013).
In brackets after ≈: the same amount, converted by molar mass.

Legend:
Assay type in all cases: cell-based
[1] = test system: S. saprophyticus; test: minimum inhibitory concentration (MIC) method; conditions: 37° C. 24 hours
Method: Another method of determining antimicrobial activity is to assess the Minimum inhibitory concentration (MIC) of the composition under test. […] Thereafter, increased concentrations will have a limiting effect on growth, until the concentration is reached where no growth relative to the control is observed. That point of no growth is the minimum inhibitory concentration. […] A positive control with the bacterium alone was prepared as well as an ethanol control. The tubes were incubated at 37° C. for 24 hours and growth of the bacterium was determined by observing the change in turbidity. […] Since the filing of the original application Ser. […] Pseudomonas fluorescens, Pseudomonas aeruginosa, Proteus vulgaris, Serratia marcescens, Proteus mirabilis and Enterobacter clocae.

[2] = test system: S. salivarius; test: minimum inhibitory concentration (MIC) method; conditions: 37° C. 24 hours
Method: (§1) Another method of determining antimicrobial activity is to assess the Minimum inhibitory concentration (MIC) of the composition under test. […] Thereafter, increased concentrations will have a limiting effect on growth, until the concentration is reached where no growth relative to the control is observed. That point of no growth is the minimum inhibitory concentration. […] A positive control with the bacterium alone was prepared as well as an ethanol control. The tubes were incubated at 37° C. for 24 hours and growth of the bacterium was determined by observing the change in turbidity.

[3] = test system: B. subtilis; test: minimum inhibitory concentration (MIC) method; conditions: 37° C. 24 hours
Method: as §1

[4] = test system: B. megaterium; test: minimum inhibitory concentration (MIC) method; conditions: 37° C. 24 hours
Method: as §1

[5] = test system: Staphlococcus saprophyticus; test: paper disc diffusion susceptibility (Kirby-Bauer) method; conditions: 24 hours; for zone of inhibition, Experiment 1 Control / zone of inhibition, Experiment 2 Control: antibiotic disc alone
Description: The first test method to be applied was the paper disc diffusion susceptibility method. In this method a filter paper disc impregnated with a chemical is placed on agar, and the chemical will diffuse from the disc into the agar. If an organism is placed on the agar, it will not grow in the area around the disc if it is susceptible to the chemical. This area of no growth around the disc is known as the zone of inhibition. This disc diffusion method for antibiotic susceptibility is known as the Kirby-Bauer method. In testing the effectiveness of various antibiotics, all factors, e.g., the agar utilized, the depth of the agar, the amount of organism used, and incubation conditions, are maintained constant for the various organisms and antibiotics being tested. […] The size of the zone of inhibition of the particular antimicrobial substance may also be influenced by the diffusion capability of that substance.
In performing the disc diffusion method tests, a bacterial suspension having an inoculum density of approximately 1×10^8 CFU/ml (colony forming units) was added to 10 ml trypticase soy agar at 46° C. It was mixed thoroughly by vortexing and then poured into a plastic Petri dish. After hardening of the agar, filter paper discs (φ7 mm.) made from Whatman filter paper No. 1 that had been impregnated by the manufacturer, Becton Dickinson, Inc., with the suitable antibiotic, were placed on the agar. In this series of tests the ability of each antibiotic per se to control the growth of the bacteria was measured.
Another series of agar containing Petri dishes was then prepared using the same bacteria and density thereof as had been prepared for the prior test series. However, here hop compounds were also present in the agar. The hop extract, either lupulone, humulone or xanthohumol, was dissolved in ethanol. While certain of the hop components are only slightly soluble in water, they are very soluble in ethanol. An ethanol control was prepared in the same way.
The size of the inhibition zones was measured to the nearest mm.
The concentration of β-acid and xanthohumol is set forth in μg/ml. The zone of inhibition was measured in centimeters. […]

[6] = antibiotic disc with 0.2 μg/ml β-resin in the agar

`COc1cc(O)c(CC=C(C)C)c(O)c1C(=O)/C=C/c1ccc(O)cc1` [X, xanthohumol] was tested, and the MIC ([1]; Staphylococcus saprophyticus, exp 1, read-out: MIC, agent alone) was 1 to 10 µg/mL (≈ 2.82 to 28.2 µM), the MIC ([2]; Streptococcus salivarius, exp 1, read-out: MIC, agent alone) was < 10 µg/mL and the “MIC, agent alone” value ([2]; exp 2) was <10 µg/mL. The MIC ([3]; Bacillus subtilis, exp 1, read-out: MIC, agent alone) was > 1 µg/mL, the “MIC, agent alone” value ([3]; exp 1) was >1 µg/mL and the “MIC, agent alone” value ([3]; exp 2) was >1 µg/mL. For the same molecule, the MIC ([4]; Priestia megaterium, exp 2, read-out: MIC, agent alone) was 10 µg/mL (≈ 28.2 µM) and the “MIC, agent alone” value ([4]; exp 1) was 10 µg/mL (≈ 28.2 µM).
With polymyxin B the “MIC, agent alone” value ([1]; exp 1) was >100 µg/mL, the “MIC, agent alone” value ([1]; exp 2) was >100 µg/mL and the “zone of inhibition, Experiment 1 Control” value [5] was 0 mm. The “zone of inhibition, Experiment 2 Control” value [5] was 0 mm, the “zone of inhibition, Experiment 1 Control” value ([5]; listed as polymyxin B) was “no inhibition zone whatsoever” and the “zone of inhibition, Experiment 2 Control” value ([5]; listed as polymyxin B) was “zero”. The “zone of inhibition, Experiment 1 0.2 μg/ml β-resin” value [5, 6] was 9 mm, the “zone of inhibition, Experiment 2 0.2 μg/ml β-resin” value [5, 6] was 8 mm and the “MIC, agent alone” value ([2]; exp 1) was >100 µg/mL. The “MIC, agent alone” value ([2]; exp 2) was >100 µg/mL, the “MIC, agent alone” value ([4]; exp 1) was >100 µg/mL and the “MIC, agent alone” value ([4]; exp 2) was >100 µg/mL.
